Experimental data taken from patent US6737383B1, “Herbicidal oxadiazolidines” (priority 1999, dated 2004).

Assays:
[1] = test system: surinam grass; experiment: Test B pre/postemergence surinam grass; type: in vivo, Brachiaria decumbens
Summary of the method: (§1)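 Herbicidal effect was estimated by eye on a ten-point control scale after plants spent twelve to sixteen days in a greenhouse following soil or foliar treatment. Foliar sprays targeted plants at one to four leaves; all doses were formulated in a non-phytotoxic solvent with surfactant.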

[2] = test system: bedstraw; experiment: Test B pre/postemergence bedstraw; type: in vivo, Galium aparine
Summary of the method: as §1

[3] = test system: rape; experiment: Test B pre/postemergence rape; type: in vivo, Brassica napus
Summary of the method: as §1

[4] = test system: bamyardgrass; experiment: Test B flood test barnyardgrass; type: in vivo, Echinochloa crus-galli
Summary of the method: (§2)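 Flood test on plants grown to the 2-leaf stage; treated plants kept in greenhouse twelve to sixteen days, then visually rated against controls on a 0 (no effect) to 10 (complete control) scale.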

[5] = test system: blackgrass; experiment: Test B pre/postemergence blackgrass; type: in vivo, Alopecurus myosuroides
Summary of the method: as §1

[6] = test system: pigweed; experiment: Test B pre/postemergence pigweed; type: in vivo, Amaranthus retroflexus
Summary of the method: as §1

[7] = test system: cocklebur; experiment: Test B pre/postemergence cocklebur; type: in vivo, Xanthium strumarium
Summary of the method: as §1

[8] = test system: morningglory; experiment: Test B pre/postemergence morningglory; type: in vivo, Ipomoea hederacea
Summary of the method: as §1

[9] = test system: sugar beet; experiment: Test B pre/postemergence sugar beet; type: in vivo, Beta vulgaris
Summary of the method: as §1

[10] = test system: wild oat; experiment: Test B pre/postemergence wild oat; type: in vivo, Avena fatua
Summary of the method: as §1

[11] = test system: corn; experiment: Test B pre/postemergence corn; type: in vivo, Zea mays
Summary of the method: as §1

[12] = test system: velvetleaf; experiment: Test B pre/postemergence velvetleaf; type: in vivo, Abutilon theophrasti
Summary of the method: as §1

[13] = test system: soybean; experiment: Test B pre/postemergence soybean; type: in vivo, Glycine max
Summary of the method: as §1

[14] = test system: purple nutsedge; experiment: Test B pre/postemergence purple nutsedge; type: in vivo, Cyperus rotundus
Summary of the method: as §1

[15] = test system: rice; experiment: Test B flood test rice; type: in vivo, Oryza sativa
Summary of the method: as §2

[16] = test system: smallflower flatsedge; experiment: Test B flood test smallflower flatsedge; type: in vivo, Cyperus difformis
Summary of the method: as §2

[17] = Preemergence, Rate 62 g/ha, scale of 0 to 10 where 0 is no effect and 10 is complete control
[18] = Preemergence, Rate 250 g/ha, scale of 0 to 10 where 0 is no effect and 10 is complete control
[19] = Preemergence, Rate 500 g/ha, scale of 0 to 10 where 0 is no effect and 10 is complete control
[20] = Rate 62 g/ha, Postemergence, scale of 0 to 10 where 0 is no effect and 10 is complete control
[21] = Rate 125 g/ha, Postemergence, scale of 0 to 10 where 0 is no effect and 10 is complete control
[22] = Rate 125 g/ha, Preemergence, scale of 0 to 10 where 0 is no effect and 10 is complete control
[23] = Rate 250 g/ha, Postemergence, scale of 0 to 10 where 0 is no effect and 10 is complete control
[24] = Rate 500 g/ha, Postemergence, scale 0 to 10, 0 no effect, 10 complete control
[25] = Rate 62 g/ha, headed Pre-emergence (flood test species), scale 0 to 10 (0 no effect, 10 complete control)
[26] = Rate 125 g/ha, Pre-emergence, flood test species, scale 0 to 10 where 0 is no effect and 10 is complete control
[27] = Rate 250 g/ha, Pre-emergence, flood-test species, scale 0 to 10, 0 is no effect, 10 is complete control
[28] = Rate 500 g/ha, Pre-emergence, flood test species, scale 0 to 10 (0 no effect, 10 complete control)

Cc1ccccc1-n1c(=O)on(C(=O)N(c2ccc(C(C)(C)C)cc2)C(C)C)c1=O [Compound 270]
B. signalgrass plant response rating [1, 17]: 0 | B. signalgrass plant response rating [1, 18]: 0 | Plant response rating, B. signalgrass [1, 19]: 0 | B. signalgrass plant response rating [1, 20]: 0 | B. signalgrass plant response rating [1, 21]: 0 | B. signalgrass plant response rating [1, 22]: 0 | Plant response rating, B. signalgrass [1, 23]: 0 | B. signalgrass plant response rating [1, 24]: 0 | Bedstraw plant response rating [2, 17]: 0 | Bedstraw plant response rating [2, 18]: 0 | Plant response rating, Bedstraw [2, 19]: 0 | Bedstraw plant response rating [2, 20]: 0 | Bedstraw plant response rating [2, 21]: 0 | Bedstraw plant response rating [2, 22]: 0 | Plant response rating, Bedstraw [2, 23]: 0 | Bedstraw plant response rating [2, 24]: 0 | Rape plant response rating [3, 17]: 0 | Rape plant response rating [3, 18]: 0 | Plant response rating, Rape [3, 19]: 0 | Rape plant response rating [3, 21]: 0 | Rape plant response rating [3, 22]: 0 | Plant response rating, Rape [3, 23]: 0 | Rape plant response rating [3, 24]: 0 | Barnyardgrass plant response rating [4, 25]: 0 | Barnyardgrass plant response rating [4, 26]: 0 | Barnyardgrass plant response rating [4, 27]: 0 | Barnyardgrass plant response rating [4, 28]: 0 | Blackgrass plant response rating [5, 17]: 0 | Blackgrass plant response rating [5, 18]: 0 | Plant response rating, Blackgrass [5, 19]: 0 | Blackgrass plant response rating [5, 20]: 0 | Blackgrass plant response rating [5, 21]: 0 | Blackgrass plant response rating [5, 22]: 0 | Plant response rating, Blackgrass [5, 23]: 0 | Blackgrass plant response rating [5, 24]: 0 | Redroot pigweed plant response rating [6, 17]: 0 | Redroot pigweed plant response rating [6, 18]: 0 | Plant response rating, Redroot pigweed [6, 19]: 0 | Redroot pigweed plant response rating [6, 21]: 0 | Redroot pigweed plant response rating [6, 22]: 0 | Plant response rating, Redroot pigweed [6, 23]: 0 | Redroot pigweed plant response rating [6, 24]: 0 | Cocklebur plant response rating [7, 17]: 0 | Cocklebur plant response rating [7, 18]: 0 | Plant response rating, Cocklebur [7, 19]: 0 | Cocklebur plant response rating [7, 20]: 0 | Cocklebur plant response rating [7, 21]: 0 | Cocklebur plant response rating [7, 22]: 0 | Plant response rating, Cocklebur [7, 23]: 0 | Cocklebur plant response rating [7, 24]: 0 | Morningglory plant response rating [8, 17]: 0 | Morningglory plant response rating [8, 18]: 0 | Plant response rating, Morningglory [8, 19]: 0 | Morningglory plant response rating [8, 21]: 0 | Morningglory plant response rating [8, 22]: 0 | Plant response rating, Morningglory [8, 23]: 0 | Morningglory plant response rating [8, 24]: 0 | Sugarbeets plant response rating [9, 17]: 0 | Sugarbeets plant response rating [9, 18]: 0 | Plant response rating, Sugarbeets [9, 19]: 0 | Sugarbeets plant response rating [9, 21]: 0 | Sugarbeets plant response rating [9, 22]: 0 | Plant response rating, Sugarbeets [9, 23]: 0 | Sugarbeets plant response rating [9, 24]: 0 | Wild oats plant response rating [10, 17]: 0 | Wild oats plant response rating [10, 18]: 0 | Plant response rating, Wild oats [10, 19]: 0 | Wild oats plant response rating [10, 21]: 0 | Plant response rating, Wild oats [10, 23]: 0 | Wild oats plant response rating [10, 24]: 0 | Corn plant response rating [11, 17]: 0 | Corn plant response rating [11, 18]: 0 | Plant response rating, Corn [11, 19]: 0 | Corn plant response rating [11, 20]: 0 | Corn plant response rating [11, 21]: 0 | Corn plant response rating [11, 22]: 0 | Plant response rating, Corn [11, 23]: 0 | Corn plant response rating [11, 24]: 0 | Velvetleaf plant response rating [12, 17]: 0 | Velvetleaf plant response rating [12, 18]: 0 | Plant response rating, Velvetleaf [12, 19]: 0 | Velvetleaf plant response rating [12, 21]: 0 | Velvetleaf plant response rating [12, 22]: 0 | Plant response rating, Velvetleaf [12, 23]: 0 | Velvetleaf plant response rating [12, 24]: 0 | Soybean plant response rating [13, 17]: 0 | Soybean plant response rating [13, 18]: 0 | Plant response rating, Soybean [13, 19]: 0 | Soybean plant response rating [13, 21]: 0 | Soybean plant response rating [13, 22]: 0 | Plant response rating, Soybean [13, 23]: 2 | Soybean plant response rating [13, 24]: 2 | Nutsedge plant response rating [14, 17]: 0 | Nutsedge plant response rating [14, 18]: 0 | Plant response rating, Nutsedge [14, 19]: 0 | Nutsedge plant response rating [14, 21]: 0 | Nutsedge plant response rating [14, 22]: 0 | Plant response rating, Nutsedge [14, 23]: 0 | Nutsedge plant response rating [14, 24]: 0 | Rice plant response rating [15, 25]: 0 | Rice plant response rating [15, 26]: 0 | Rice plant response rating [15, 27]: 0 | Rice plant response rating [15, 28]: 0 | S. Flatsedge plant response rating [16, 25]: 0 | S. Flatsedge plant response rating [16, 26]: 0 | S. Flatsedge plant response rating [16, 27]: 0 | S. Flatsedge plant response rating [16, 28]: 0
